pIC50: −log10 of the molar value. Results filed as inconclusive are left out.

The source of these data is PubChem BioAssay AID449762 (Southern Research Specialized Biocontainment Screening …, 2010).

This assay concerns M. tuberculosis H37Rv growth inhibition, 7H9 media. The assay can be described thus: M. tuberculosis growth inhibition, HTS (AID 449762).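 As to all read-outs here: bacterial growth assessed after seven days of incubation.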 The conditions noted are these: for IC90: measured here: IC90 growth inhibition.

By pIC50 is commonly meant the IC50 on a negative log10 scale, so that one unit is a factor of ten. One may read the IC90 as the concentration needed for an effect of 90%. The low end stands for greater potency, the high end for weaker potency. With `COc1ccc(NC(=O)/C(Cl)=C(/Cl)S(=O)Cc2ccc(C)cc2)cn1` (configuration not stated), the pIC50 is above 6.70 and the IC90 was below 0.2 µM. With `CCOC(=O)c1ccc(NC(=O)CSc2ccc(-c3cccnc3)nn2)cc1`, the IC90 was above 100 µM. `Cn1c(CNc2ccccc2O)nc2ccccc21`: the negative-log IC50 (pIC50) was 5.52 and the IC90 amounted to 3.52 µM.

In the case of `COc1ccc(-c2csc(NC(C)c3nc4cc(Cl)c(N5CCCCC5)cc4n3CCCO)n2)cc1` (configuration not stated), the pIC50 is 4.95 and the concentration for an effect of 90% (IC90) came out at 12.7 µM. For `Cc1sc2ncnc(Oc3ccc(-n4ccnc4)cc3)c2c1C` the same measures were 4.48 and 55.5 µM. Regarding `O=C(OCc1csc(Nc2ccccc2)n1)c1ccc(Cl)cc1`, the negative-log IC50 (pIC50) is 4.77 and the concentration for an effect of 90% (IC90) came out at 45.7 µM.

As to `CCOC(=O)COc1cc(O)c2c(=O)cc(-c3ccccc3)oc2c1`, the pIC50 was 6.17 and the concentration for an effect of 90% (IC90) stood at 2.33 µM. Turning to `CCC(C)NC(=O)c1c(N)n(/N=C/c2ccccn2)c2nc3ccccc3nc12` (configuration not stated), the pIC50 was 5.01 and the concentration for an effect of 90% (IC90) amounted to 14.3 µM.

Regarding `O=C(COC(=O)C1=COCCO1)Nc1cccc(Oc2ccccc2)c1`, the negative logarithm of the IC50 (pIC50) is 5.29 and the IC90 worked out at 55.4 µM. For `O=C(NC1CCN(Cc2ccccc2)CC1)c1cccc(S(=O)(=O)Nc2ccc(SC(F)F)cc2)c1` the same measures were 4.81 and 21.9 µM. Consider `COCc1cc(=O)[nH]c(Nc2nc3ccccc3o2)n1`, for which the pIC50 was 5.80 and the IC90 is 7.06 µM. Consider `CCN(CC)C(=S)SSC(=S)N(CC)CC`, for which the negative-log IC50 (pIC50) is 6.11 and the concentration for an effect of 90% (IC90) turned out to be 1.53 µM. Take `CN(C)N=Nc1nc[nH]c1C(N)=O`: the pIC50 was 5.31 and the IC90 turned out to be 6.76 µM. Regarding `CCN=c1scc(-c2ccco2)n1/N=C/c1ccc(OC)c(O)c1`, the negative logarithm of the IC50 (pIC50) is 4.91 and the concentration for an effect of 90% (IC90) is 41.8 µM. With `Cc1nn2c(NCc3ccccn3)cc(C(C)C)nc2c1-c1ccccc1`, the pIC50 was 5.63 and the 90% effect concentration (IC90) stood at 3.29 µM. As to `CCC(C)NC(=O)c1cn(CC)c2cc(N3CCN(C(=O)c4ccco4)CC3)c(F)cc2c1=O` (configuration not stated), the pIC50 was 5.03 and the concentration for an effect of 90% (IC90) amounted to 30.9 µM. In the case of `COc1ccc(NC(=O)CSC2=C(C#N)C(c3ccco3)C(C(=O)Nc3nc4ccccc4s3)=C(C)N2)cc1` (configuration not stated), the pIC50 was 5.25 and the concentration for an effect of 90% (IC90) stood at 7.26 µM. Take `Cc1nn(-c2ccccc2)c(Cl)c1/C=C/C(=O)c1ccccc1`: the pIC50 was 4.31 and the IC90 was 56.7 µM.

Regarding `CCCCC(=O)OCC(=O)N1N=C(c2c[nH]c3ccccc23)C(O)C1c1ccc(OC)cc1` (configuration not stated), the negative-log IC50 (pIC50) was 4.98 and the IC90 was 15.9 µM.

Turning to `CN(CCO)c1cc(Sc2nc3ccccc3s2)c2nonc2c1[N+](=O)[O-]`, the pIC50 was 4.57 and the IC90 was above 100 µM. On to `CCc1ccc(CCOc2ccc(CC3SC(=O)NC3=O)cc2)nc1` (configuration not stated), for which the pIC50 was 4.63 and the concentration for an effect of 90% (IC90) is above 25 µM.

Turning to `COc1cc2[nH]c3c(N4CCN(c5ccccn5)CC4)ncnc3c2cc1OC`, the pIC50 is 4.87 and the concentration for an effect of 90% (IC90) is above 50 µM. As to `O=C(NCCN1CCN(c2cccc(Cl)c2)CC1)c1ccc(CSc2nc3ccncc3[nH]2)cc1`, the pIC50 is 4.63 and the 90% effect concentration (IC90) is 35.3 µM. Take `O=C(Oc1ccc(-c2cn3c(n2)SCC3)cc1)c1ccccc1`: the negative logarithm of the IC50 (pIC50) is 4.42 and the 90% effect concentration (IC90) was above 100 µM. As for `COCCCN=C1NN=C(c2cc(C)n(Cc3ccco3)c2C)CS1`, the pIC50 is 4.22 and the concentration for an effect of 90% (IC90) was 87.4 µM.

`Cc1nc2sccn2c(=O)c1CCN1CCC(=C(c2ccccc2)c2ccc(F)cc2)CC1`: the pIC50 was 4.35 and the IC90 is 49.9 µM. `COc1cc(C)ccc1OCCOc1c(C)cc(Cl)cc1Cl`: the negative-log IC50 (pIC50) was 4.67 and the IC90 is above 100 µM.

`Cc1cc(N2CCC(C)CC2)nc(-n2nc(C)cc2C)n1`: the pIC50 was above 6.70 and the IC90 was determined as 5.47 µM. The like results for `Cc1ccc2c(c1)c1ncnc(N3CCc4ccccc4C3)c1n2C` were, in that order, 4.09 and above 100 µM. For `Cc1ccc(NC(=O)CNCc2cccs2)cc1Br` the same measures were 4.00 and above 100 µM. Take `O=C(/C=C\c1cccs1)N1CCN(Cc2ccc3c(c2)OCO3)CC1`: the pIC50 was 5.83 and the IC90 came to 5.53 µM.

For `Cc1cccc(/C=c2\s/c(=C\C(=O)C(C)(C)C)[nH]c2=O)c1`, the pIC50 was 5.25 and the IC90 stood at 23.6 µM. `CC1=NOC(=O)/C1=C/c1ccc(-c2ccc(Cl)cc2)o1`: the pIC50 was 5.28 and the concentration for an effect of 90% (IC90) came out at 70.3 µM. Regarding `CC(C)(O)[C@H]1O[C@H]2CC[C@@]3(C)[C@@](O)(CC[C@H]4Cc5c([nH]c6ccccc56)[C@@]43C)C2=CC1=O`, the negative-log IC50 (pIC50) was 4.38 and the IC90 was determined as 63.9 µM. Turning to `CC(/C=N/n1c(C2CCCCC2)n[nH]c1=S)=C\c1ccccc1`, the negative-log IC50 (pIC50) was 4.31 and the 90% effect concentration (IC90) turned out to be 54.3 µM. Take `COC(=O)c1cc(/C=C/c2ccccc2)on1`: the negative-log IC50 (pIC50) was 4.77 and the 90% effect concentration (IC90) is above 100 µM.

For `Cn1cc(NC(=O)CCl)cn1`, the pIC50 is 5.36 and the IC90 is 8.63 µM.

For `CCOc1ccc(N2CC(=O)Nc3ccccc3NCC2=O)cc1`, the negative logarithm of the IC50 (pIC50) was 4.28 and the IC90 turned out to be 78.2 µM. As for `C[C@]12CC[C@@H]3c4ccc(O)cc4CC[C@H]3[C@@H]1CC[C@@H]2OC(=O)CCC1CCCC1`, the negative-log IC50 (pIC50) is 5.19 and the IC90 turned out to be 10.9 µM.

Turning to `CSc1nsc(SCC(=O)N2CCCCC2)n1`, the pIC50 is 5.26 and the IC90 was determined as 8.81 µM. For `CN1CCN(Cn2cc(/C=C/C(=O)c3ccccc3)c3ccccc32)CC1`, the pIC50 was 5.10 and the concentration for an effect of 90% (IC90) amounted to 26.3 µM. Take `Oc1ccc2ccccc2c1N=Nc1nccs1`: the pIC50 was above 6.70 and the IC90 came out at 2.01 µM. Turning to `COc1cc(CNCCc2ccccc2)cc(Cl)c1OCc1ccccc1`, the negative logarithm of the IC50 (pIC50) is 4.65 and the 90% effect concentration (IC90) came out at 24.9 µM. With `CCN1c2ccccc2N(C)C1(C)c1ccccc1` (configuration not stated), the pIC50 is 5.22 and the IC90 was 6.79 µM. As for `CCOc1ccc(-c2cnc(NCc3cccc4ccccc34)n2CCOC)cc1`, the pIC50 is 5.25 and the IC90 turned out to be 8.14 µM. Regarding `Cc1ccc2c(c1)Oc1ccc(NC(=O)CCl)cc1C(=O)N2`, the pIC50 is 5.10 and the concentration for an effect of 90% (IC90) is above 100 µM. Regarding `Cc1nc(NCCc2ccccc2)c2oc3ccccc3c2n1`, the pIC50 was 5.19 and the IC90 amounted to 14.2 µM. Turning to `CCOC(=O)c1nc2sc3c(c2c(=O)[nH]1)CCC(C)C3` (configuration not stated), the negative-log IC50 (pIC50) is 4.33 and the IC90 is above 100 µM.

On to `Cc1cc(C)n(C(=O)c2ccc([N+](=O)[O-])cc2[N+](=O)[O-])n1`, for which the pIC50 was 5.34 and the IC90 was found to be 8.45 µM. For `Cc1cccc(C2=N/C(=C\c3cccs3)C(=O)O2)c1`, the negative-log IC50 (pIC50) is 5.57 and the IC90 is 15.5 µM. The like results for `CCOc1ccc(N2CCc3c(C)nc(SC)nc32)cc1` were, in that order, above 6.70 and above 100 µM. `COc1ccccc1N(C)S(=O)(=O)c1ccc(C(=O)Nc2ccc3nc(C)sc3c2)cc1`: the pIC50 is 4.24 and the IC90 was above 100 µM. In the case of `CCC(=O)c1ccc(OCC(=O)OCC(=O)c2cc(C)n(C3CC3)c2C)cc1`, the negative-log IC50 (pIC50) is 5.62 and the concentration for an effect of 90% (IC90) is 74.8 µM.

Consider `O=C(OCC(=O)c1cccs1)C1=COCCO1`, for which the pIC50 is 4.67 and the IC90 is above 100 µM.

Take `Cc1ccc(OCc2cc(C(=O)N(C)Cc3cnc4ccccn34)no2)cc1C`: the pIC50 was 4.71 and the IC90 was 32 µM. Turning to `CCOCCN1CCN(c2c(CC)c(C)nc3cc(-c4cc(OC)cc(OC)c4)nn23)CC1`, the pIC50 is 4.59 and the concentration for an effect of 90% (IC90) came to 38.9 µM. The like results for `Cc1ccnc(NC(=O)COc2ccc3c(c2)CCC3)c1` were, in that order, 4.40 and above 100 µM. Turning to `CCCc1cc(-c2nc(-c3ccc(Br)cc3)cs2)ccn1`, the negative-log IC50 (pIC50) is 4.99 and the 90% effect concentration (IC90) came to 20.6 µM. The like results for `CCOC(=O)C1=NOC(CNc2ncc(C(F)(F)F)cc2Cl)C1` (configuration not stated) were, in that order, 5.15 and 14.1 µM. Consider `O=[N+]([O-])c1ccc(C2Oc3ccccc3C3CC(c4ccccc4)=NN32)s1` (configuration not stated), for which the pIC50 was 5.21 and the IC90 came out at 6.95 µM. As for `COc1ccc(C2CC(c3cccs3)=Nc3ccccc3S2)cc1` (configuration not stated), the pIC50 was 4.52 and the concentration for an effect of 90% (IC90) amounted to 44 µM. `Cc1cc(NC(=O)CCl)no1`: the negative logarithm of the IC50 (pIC50) is 5.88 and the IC90 came out at 3.6 µM. In the case of `CCOC(=O)Cn1nc(-c2ccccc2)nc1-c1ccccc1`, the pIC50 is 5.23 and the concentration for an effect of 90% (IC90) stood at 22.7 µM.

In the case of `C=CC[n+]1ccn(-c2nc3ccccc3nc2[N-]S(=O)(=O)c2cccs2)c1`, the pIC50 was 4.60 and the IC90 worked out at 28.1 µM. With `CCn1c(NC(=O)c2nn(C)cc2Br)nc2ccccc21`, the negative-log IC50 (pIC50) was 5.36 and the concentration for an effect of 90% (IC90) is 12.7 µM.

Turning to `Cc1ccc(NN=C2c3ccccc3-c3ccccc32)cc1`, the negative-log IC50 (pIC50) was 4.34 and the IC90 was above 100 µM. As for `Cc1ccc(C2CC(c3cccs3)=NN2C(=O)CCl)cc1` (configuration not stated), the pIC50 is 6.41 and the concentration for an effect of 90% (IC90) was 1.39 µM. Consider `COc1cc2cnc(-c3ccccc3)c(-c3ccc(C(F)(F)F)cc3)c2cc1OC`, for which the pIC50 is 4.36 and the IC90 was above 50 µM. Take `CCCCCCCNC(=O)C1(CC2CC(c3cccc(Br)c3)=NO2)CCNCC1` (configuration not stated): the negative-log IC50 (pIC50) was 4.38 and the IC90 is 53.1 µM. The like results for `COc1c(C)cc(C(=O)C2CCCN(Cc3ccccn3)C2)cc1C` (configuration not stated) were, in that order, 5.24 and above 100 µM. Consider `O=C(C1CCCN(c2ncnc3c2nc2n3CCCCC2)C1)N1CCN(c2ccc(Cl)cc2)CC1` (configuration not stated), for which the pIC50 was 4.51 and the concentration for an effect of 90% (IC90) was determined as 40.3 µM. Consider `Cc1cc(C)c2nc(-c3ccncc3)cc(C(=O)N3CCN(Cc4ccccc4Cl)CC3)c2c1`, for which the pIC50 is 4.64 and the 90% effect concentration (IC90) is 26.1 µM. For `CCN(CC)CCCNc1nc2cc(OC)c(OC)cc2c2nc(-c3ccccc3)nn12` the same measures were 5.33 and 6 µM.

In the case of `CCCCC(CC)CN=C(N)NC(N)=NCCCCCCN=C(N)NC(N)=NCC(CC)CCCC` (configuration not stated), the negative logarithm of the IC50 (pIC50) is 5.44 and the IC90 amounted to 4.76 µM.
